Values belong to the compound of their own block, whether it stands above or below them.
Key:
rat aortic rings = test: animal or person; assay type: in vivo, Sprague-Dawley rats; details: for relaxation response to acetylcholine at 100 nM in iron treated rats given antioxidant: 100 nM acetylcholine, iron sucrose plus Tempol (drinking water), N-acetylcysteine 140 mg/kg iv or Vitamin C 100 mg/kg iv, iron alone 22±10%; for Maximum relaxation of aortic ring in iron-treated animals given antioxidant: iron sucrose 14 mg/kg iv plus Tempol 2 mmol/L in drinking water 72 h or N-acetylcysteine 140 mg/kg iv, iron alone 46±14%
Procedure: Forty seven normal Sprague-Dawley rats (280-350 g) were included in this study. Twenty three rats were injected in the tail vein with 14 mg/kg iron sucrose (Venofer, American Regent) twenty four hours before dissection of the aortic ring.
Twenty four hours after iron sucrose injection, the rats were sacrificed by interperitoneal injection of 100 mg/kg Inactin. Blood was collected for measurement of markers of oxidative stress and the thoracic aorta isolated and placed in ice cold PSS.
The surrounding tissue of aorta was carefully dissected away and care taken to not damage the endothelium. The aorta was then cut into a 4-5 mm width transverse ring and then mounted isometrically in 10 mL organ bath containing oxygenated PSS warmed to 37° C. and gassed with air.
The aortic ring was suspended under a resting force of […] and allowed to equilibrate for 30 minutes before administration of any agents. The bath was perfused with fresh PSS and was washed with PSS after each test response to the administered agents. The aortic ring was preconstricted with 10 nM phenylephrine prior to the addition of acetylcholine, and allowed to equilibrate for another 30 minutes.
Isometric contraction was measured on an oscillographic recorder. Subsequently acetylcholine was added to the bath in increasing doses of 1 nM to 100 μM and the relaxation response to each dose was recorded as the percentage of the drop in the starting resting force. […] P<0.05 was considered significant.

aortic ring = details: cited from earlier work; for iron-induced endothelial dysfunction of the blood vessel: rats, iron co-administered with the antioxidant
MDA levels = details: CKD patients treated with iron gluconate; cited from earlier work
oxidative stress markers = details: cited from earlier work
[1] = light stability of Tempol solutions; assay type: physicochemical; details: solutions left in sunlight

relaxation response of aortic ring to increasing doses of acetylcholine (rat aortic rings; rat, in vivo): significantly reduced | relaxation response to acetylcholine at 100 nM (rat aortic rings; rat, in vivo): 22±10% | Maximum relaxation of aortic ring (percentage of the drop in the starting resting force) (rat aortic rings; rat, in vivo, iv, 14 mg/kg): 46±14%
Compound: iron sucrose
reduction in aortic ring vasodilation in response to acetylcholine (aortic ring; rat, in vivo, iv): 40%

IC50 (rat aortic rings; Rattus norvegicus, iv, aortic rings preconstricted with 10 nM phenylephrine, all treatment groups, read-out: IC50 for all dose response curves (acetylcholine relaxation of aortic ring)): 100 nM
Compound: CC(=O)OCC[N+](C)(C)C [acetylcholine]

Compound: CC(=O)N[C@@H](CS)C(=O)O [N-acetylcysteine]
MDA level decrease after iron gluconate (MDA levels): not observed | relaxation response to acetylcholine at 100 nM in iron treated rats given antioxidant (rat aortic rings): 42±13% | Maximum relaxation of aortic ring in iron-treated animals given antioxidant (rat aortic rings): 69.9±13% | iron-induced endothelial dysfunction of the blood vessel (aortic ring): completely attenuated

Compound: O=C1O[C@H]([C@@H](O)CO)C(O)=C1O [Vitamin C]
relaxation response to acetylcholine at 100 nM in iron treated rats given antioxidant (rat aortic rings): 41±8% | relaxation response to 100 nM through 100 μM of acetylcholine, addition to iron treatment (rat aortic rings; Vitamin C 100 mg/kg iv with iron sucrose, only statistically significant at 100 nM acetylcholine (FIG. 3)): increased the relaxation response | reducing iron-induced oxidative stress markers (oxidative stress markers; dialysis population): not been shown to be effective | effect when co-administered with iron (oxidative stress markers; subjects with physiologic Vitamin C levels): pro-oxidant effect

Compound: CC1(C)CC(O)CC(C)(C)N1[O] [Tempol, 4-hydroxy-2,2,6,6-tetramethyl-1-piperidine-1-oxyl]
relaxation response to acetylcholine at 100 nM in iron treated rats given antioxidant (rat aortic rings): 48±17% | Maximum relaxation of aortic ring in iron-treated animals given antioxidant (rat aortic rings): 75±15% | iron-induced endothelial dysfunction of the blood vessel (aortic ring): completely attenuated | stability of solutions in sunlight [1]: discolor when left in sunlight
